Assay results reported in ChEMBL document CHEMBL3044803, “Impact of tricyclazole and azoxystrobin on growth, sporulation and secondary infection of the rice blast fungus, Magnaporthe oryzae” (Pest Manag Sci, 2013).
Converted amounts (≈) assume the structure as drawn. The source made the active and inactive calls. The rule behind the calls is not given here.

What was measured:
Pyricularia oryzae [1] = assay: Fungicidal activity against Magnaporthe oryzae assessed as germination of conidia at 0.01 mg/l at 26 degC measured after 7 days; type: functional, organism-based
Pyricularia oryzae [2] = assay: microbe, parasite or virus in culture; type: functional; conditions: for EC50: Pyricularia oryzae, 168 h, read-out: ED50 (the source's name)
Pyricularia oryzae [3] = assay: Fungicidal activity against Magnaporthe oryzae assessed as reduction of appressorium diameter of conidia at 0.01 to 1 mg/l at 26 degC measured after 7 days; type: functional, organism-based
Pyricularia oryzae [4] = assay: microbe, parasite or virus in culture; type: functional, organism-based; conditions: 168 h
Pyricularia oryzae [5] = assay: microbe, parasite or virus in culture; type: functional; conditions: 168 h
Pyricularia grisea = assay: Fungicidal activity against Magnaporthe grisea; type: functional; conditions: read-out: ED50 (the source's name)
Pyricularia oryzae [6] = assay: Fungicidal activity against Magnaporthe oryzae from perennial ryegrass; type: functional; conditions: read-out: ED50 (the source's name)
Pyricularia oryzae [7] = assay: Fungicidal activity against Magnaporthe oryzae assessed as germination of conidia at 1 mg/l at 26 degC measured after 7 days; type: functional
Pyricularia oryzae [8] = assay: microbe, parasite or virus in culture; conditions: 168 h, read-out: INH

SMILES	Activity (Pyricularia oryzae [1])	ED90 (Pyricularia oryzae [2]) [µg/mL]	EC50 (Pyricularia oryzae [2]) [µg/mL]	Activity (Pyricularia oryzae [3])	EC50 (Pyricularia oryzae [4]) [µg/mL]	inhibition at 1 µg/mL (Pyricularia oryzae [5]) [%]	EC50 (Pyricularia grisea) [µg/mL]	EC50 (Pyricularia oryzae [6]) [µg/mL]	Activity (Pyricularia oryzae [7]) [%]	inhibition at 5 µg/mL (Pyricularia oryzae [8]) [%]
CO/C=C(/C(=O)OC)c1ccccc1Oc1cc(Oc2ccccc2C#N)ncn1 [AZOXYSTROBIN]	inactive	69.58 (≈ 172 µM)	0.044 (≈ 0.109 µM)	Active	0.017 (≈ 0.0421 µM)	95	1.8 (≈ 4.46 µM)	0.013 (≈ 0.0322 µM)	67.1	
Cc1cccc2sc3nncn3c12 [TRICYCLAZOLE]		215.64 (≈ 1140 µM)	1 (≈ 5.31 µM)		0.072 (≈ 0.38 µM)					95
